Results as given in ChEMBL document CHEMBL1770056, “2-Arylimidazo[2,1-b]benzothiazoles: a new family of amyloid binding agents with potential for PET and SPECT imaging of Alzheimer's brain” (Bioorg Med Chem Lett, 2011).
pKd, pKi: −log10 of the molar value.

Assay: Displacement of [3H]BTA-1 from amyloid beta 1 to 40 by competitive binding assay

pKi | Structure (SMILES)
7.23 | COc1ccc2c(c1)sc1nc(-c3ccc(N(C)C)cc3)cn12
7.53 | COc1ccc2c(c1)sc1nc(-c3ccc(N)cc3)cn12
8.22 | COc1ccc2c(c1)sc1nc(-c3ccc(N[11CH3])cc3)cn12
6.88 | Nc1ccc(-c2cn3c(n2)sc2cc(F)ccc23)cc1
7.42 | CNc1ccc(-c2cn3c(n2)sc2cc(F)ccc23)cc1
7.37 | CN(C)c1ccc(-c2cn3c(n2)sc2cc(F)ccc23)cc1
7.54 | Nc1ccc(-c2cn3c(n2)sc2cc(Br)ccc23)cc1
7.46 | CNc1ccc(-c2cn3c(n2)sc2cc(Br)ccc23)cc1
7.36 | CN(C)c1ccc(-c2cn3c(n2)sc2cc(Br)ccc23)cc1
7.96 | COc1ccc2c(c1)sc1nc(-c3ccc([123I])cc3)cn12
7.38 | Fc1ccc2c(c1)sc1nc(-c3ccc(I)cc3)cn12
7.68 | Brc1ccc2c(c1)sc1nc(-c3ccc(I)cc3)cn12
7.75 | Cc1ccc2c(c1)sc1nc(-c3ccc(I)cc3)cn12
8.03 | COc1ccc2c(c1)sc1nc(-c3ccc(Br)cc3)cn12
7.59 | Cc1ccc2c(c1)sc1nc(-c3ccc(Br)cc3)cn12
8.35 | CNc1ccc(-c2nc3ccc(O)cc3s2)cc1 [PITTSBURGH COMPOUND B UNLABELLED]
7.96 | [11CH3]Nc1ccc(-c2nc3ccc(O)cc3s2)cc1 [PITTSBURGH COMPOUND B]

Assay: Binding affinity to amyloid beta 1 to 40

pKd | Structure (SMILES)
8.00 | CN(C)c1ccc(-c2cn3cc([123I])ccc3n2)cc1
8.00 | [11CH3]Nc1ccc(-c2nc3ccc(O)cc3s2)cc1 [PITTSBURGH COMPOUND B]
